These results are taken from US11413295B2, “Oral preparation of obeticholic acid” (Intercept Pharmaceuticals, Inc., priority 2016, dated 2022).

A short description of series [1]: Obeticholic acid solubility in various test solutions. Type of series: physicochemical. The following applies: read-out: Dissolved concentration.
The nature of series [2]: Chemical stability: obeticholic acid dimer production by HPLC (Test Example 3). Type of series: physicochemical. On the procedure:
The following assessments were carried out to see whether, in cases where the amorphous form of obeticholic acid was used, there were any changes in chemical stability even after wet granulation. Specifically, measurements were taken of the amounts in which obeticholic acid dimers were produced (referred to in Patent Document 2 as “Impurity 6,” “3α (3α, 7α-dihydroxy-6α-ethyl-5β-cholan-24-oyloxy)-7α-hydroxy-6α-ethyl-5β-cholan-24-oic acid,” and “6ECDCA dimer”), which were confirmed to have a high propensity to increase in the preparation process and stability tests among known related substances of obeticholic acid disclosed in Patent Document 2, for example.
Test tubes containing the obeticholic acid prepared in Example 19 and the obeticholic acid 20 mg FC tablets of Example 4 were stored under the following conditions. The amounts in which obeticholic acid dimer was produced before (initial) and after storage were measured in accordance with Test Example 3. […]
4 weeks at 60° C. (closed)
Acetonitrile/water (9/1) was added in an amount of exactly 10 mL to test tubes that had been retrieved from storage, and the contents were ultrasonically treated to extract the obeticholic acid. Following centrifugation (10 min at 3000 rpm), the supernatant was made into samples for HPLC assay (500 μg/mL obeticholic acid).
One tablet containing 20 mg obeticholic acid (per tablet) that had been retrieved from storage was introduced into a 40 mL graduated measuring flask. Acetonitrile/water (9/1) was added to the graduated measuring flask, the contents were ultrasonically treated (10 min), and it was confirmed that the tablet had disintegrated. The contents were thoroughly shaken (60 min at 300 rpm) using a shaker, and were again ultrasonically treated to extract the obeticholic acid. Acetonitrile/water (9/1) were added to a constant volume, followed by centrifugation (10 min at 3000 rpm), and the supernatant was made into samples for HPLC assay (500 μg/mL).
50 mg of obeticholic acid was weighed out into a 100 mL graduated measuring flask and dissolved using acetonitrile/water (9/1) (500 μg/mL). The resulting solution was diluted with acetonitrile/water (9/1) to prepare 15.0 μg/mL (3.0%), 5.0 μg/mL (1.0%), and 0.25 μg/mL (0.05%) standard solutions.
The above three standard solutions were used to produce a calibration curve, and the obeticholic acid dimer contained in the sample solutions was quantified. The conditions of analysis are shown below.
Detector: Charged particle detector
Column: by Sigma-Aldrich, SUPELCO Discovery C8 (particle size: 5 μm; internal
Mobile phase: Acetonitrile/methanol/acetic acid aqueous solution (pH 3.0) mixture (8/1/1)

Values after ≈ are worked out from the molar mass of the structure shown. Read-outs that look alike come from different tables or passages of the source.

Regarding `CC[C@H]1[C@@H](O)[C@@H]2[C@H](CC[C@]3(C)[C@@H]([C@H](C)CCC(=O)O)CC[C@@H]23)[C@@]2(C)CC[C@@H](O)C[C@@H]12` [Obeticholic acid, 6α-ethyl-3α, 7 α-dihydroxy-5β-cholan-24-oic acid], the solubility in series [1] (JP1, pH 1.2, simulated gastric fluid) was 4.07 µg/mL (≈ 9.68 µM); in series [1] (JP2, pH 6.8, aqueous buffer) it was 306 µg/mL (≈ 729 µM); in series [1] (aqueous buffer, pH 3.0 McIlvaine buffer) it was 4.43 µg/mL (≈ 10.5 µM); in series [1] (aqueous buffer, pH 4.0 McIlvaine buffer), 4.66 µg/mL (≈ 11.1 µM); in series [1] (aqueous buffer, pH 5.0 McIlvaine buffer), 11.4 µg/mL (≈ 27.1 µM); in series [1] (aqueous buffer, pH 6.0 McIlvaine buffer) it was 60.6 µg/mL (≈ 144 µM). Moreover, the solubility in series [1] (water) came out at 21.4 µg/mL (≈ 51 µM). Moreover, the “Amount of obeticholic acid dimer production” value in series [2] (50° C., 85% RH open 4 W) stood at 0.83%; in series [2] (60° C. closed 4 W), 0.81%; in series [2] (Initial), 0.04%. The “Increase in obeticholic acid dimer from initial product” value in series [2] (50° C., 85% RH open 4 W) is on record as 0.79%; in series [2] (60° C. closed 4 W) it was 0.77%.
